Source: patent US12723128B2, “Aromatic diol compounds, diepoxide compounds, polymers prepared from such compounds, and methods for making the same” (SWIMC LLC, priority 2020, dated 2026)

Experiment: Stability by differential scanning calorimetry (DSC)
Assay type: physicochemical
Details: FIG. 7
Protocol: In Example 9, the stability of the diglycidyl ether of Example 4B (cyclohexanone 2,6 methylene bis (2-furan, 5-methanol glycidyl ether)) was tested using differential scanning calorimetry (“DSC”).

O=C1/C(=C/c2ccc(COCC3CO3)o2)CCC/C1=C\c1ccc(COCC2CO2)o1 (stereo not shown) [Example 4B, cyclohexanone 2,6 methylene bis (2-furan, 5-methanol glycidyl ether)]
Stability (stable up to): up to 180 °C
